Laboratory results reported in patent US11633414B2, “Nicotinoyl riboside compositions and methods of use” (Cornell University, priority 2005, dated 2023).
Entries after “also recorded” stand apart in the source; their conditions may differ. Read-outs that look alike come from different tables or passages of the source.

Assays:
[1] = test system: Mouse embryonic stem cells; test: Effects of statins on cell viability and mitigation of toxicity by nicotinamide riboside (cell counting and MTT assay); settings: for IC50: read-out: IC50 for statins in the absence of NR, apparently 7 days
[2] = test system: Mouse embryonic stem cells; test: Effect of NAR on mms mediated cell death (trypan blue counting); type: cell-based; settings: media supplemented with NAR 1 mM, mms 1 mM (FIG. 2)
Procedure: 1000 units/mL], named from #1 to #7. […] Mms (200 mM) was added to flask #2, 3, 4, 5, 6, 7 to make final concentration as 1 mM. Cell flask #1 is kept as a control, and used for passage. After 3 hrs incubation, fresh media was changed for flask #4, 5, 6, 7. And Cell #2, and 3 are harvested. After 6 hrs treatment of mms, Cell #4, 5 are harvested. And Cell #6, 7 are harvested at 9 hrs treatment of mms. The harvest cells (living ones) are counted for the percentage of death with trypan blue (see FIG. 2).

[3] = test system: Mouse embryonic stem cells; test: Cell survival after mms treatment and passage with/without NAR (haemocytometry); type: cell-based; settings: mms 1 mM 3 hrs, NAR 1 mM, counted after two days
Procedure: Mms (200 mM) was added to both flask #A and #B to make final concentration as 1 mM. After 3 hrs incubation, each cell culture (with/without NR treated) is passed to two new flasks with/without 1 mM of NAR. After two days incubation, count the culture survival in each of these 4 new flasks: mms/control media, mms/NAR media; mms+NAR/control media; mms+NAR/NAR media. It was found after mms treatment, the cultured cells are seriously damaged and only have a very low survival after passage. […] Cell counting by haemocytometry was used to determine survival versus cell number (see FIG. 4).

[4] = test system: Mouse embryonic stem cells; test: Increase of cellular NAD+ levels in cells grown on nicotinamide riboside (NAR) enriched medium; type: cell-based
Procedure: Mouse embryonic stem cells were plated onto cell culture flasks (250 mL, 75 cm^2) and grown to 50% confluence in 48 hours after passage. At 48 hours 2 flasks were set aside as controls and 2 flasks were used to determine effect of NAR on NAD+ biosynthesis. Cells were treated with 1M HClO4, and a specific amount of 180-NAM ([…]) and ^18O-NAD+. Samples were fractionated by HPLC and the fractions containing NAM and NAD+ were analyzed by ESI-MS and MALDI-MS respectively. Peak ratio (^16O/^18O) was used to quantitate NAM and NAD+ amounts in each sample. […] According to our measurement, the NAD+ level in NAR treated cells is 3886.6 pmoL/mg cell protein and nucleic acid content, and the NAD+ in control cells is only 1782.2 pmoL/mg cell protein and nucleic acid content. Cell protein and nucleic acid content were measured separately (see FIG. 3).

[5] = type: physicochemical
Procedure: The synthesis of nicotinoyl riboside compounds was initiated with the preparation of a preferred intermediate, ethyl 1-[3,4-diacetyloxy-5-(acetyloxymethyl)oxolan-2-yl]-pyridine-3-carboxylate. Nicotinic acid riboside O-alkyl derivatives were prepared from there. Refluxing of the protected sugar, 1,2,3,5-tetra-O-acetyl-β-D-ribofuranose with ethyl nicotinate (1.2 equiv.) in methylene chloride under the catalysis of TMSOTf (1 equiv.) stereoselectively formed β-isomer in good yield (>90%). One of the advantages for this method is that there is no need to go through the silylation of nicotinamide. After evaporation of the solvent, ethyl 1-[3,4-diacetyloxy-5-(acetyloxymethyl)oxolan-2-yl]-pyridine-3-carboxylate could be used directly for the next step. […] Extraction of ethyl acetate from water layer could get rid of most non-polar side products and give 95% of pure products according to TLC. Ethyl 1-[3,4-diacetyloxy-5-(acetyloxymethyl)oxolan-2-yl]-pyridine-3-carboxylate was also treated with NaOCH3/MeOH at −20° C. to form O-methyl nicotinate riboside. Other O-alkyl nicotinate ribosides were prepared similarly. O-Alkyl nicotinate ribosides can be hydrolyzed with esterase (from porcine liver, sigma) at pH=7.0 to afford clean nicotinic acid riboside. Reverse HPLC was used to detect and purify products.

Hela cells = test: NAD+ content in cells after treatment with nicotinate riboside derivatives (HPLC, MALDI-MS with 18O-NAD+ standard); type: cell-based; settings: for 16O-NAD+ / [NAD+]/10^6 cell: 24 hrs; for [NAD+]/10^6 cell: control 618
Procedure: Synthesized compounds (NAR: Nicotinic acid riboside, O-ethyl-NR: ethyl-nicotinate riboside, Intermediate: TAENR, triacetyl-ethyl-nicotinate riboside, See FIG. 10) were added to the cells separately after 24 hours (no compound added for control). The cells were then incubated for another 24 hrs before harvest. Cells were trypsinized and an aliquot removed for counting. […] After mixing thoroughly, samples were pelleted and then neutralized with NaOH to make pH=7˜8. Samples were then centrifuged for 3 minutes and the supernatant (100 uL) was injected onto a C-18 column (Hitachi HPLC L2130 pump L2450 diode array detector) and separated to isolate the peak containing NAD+. The elution was collected during the NAD+ peak and the solution frozen and lyophilized.

Question: With NC(=O)c1ccc[n+]([C@@H]2O[C@H](CO)C(O)C2O)c1 (stereo partly drawn) [NAR, β-nicotinamide riboside] as the molecule, how does the “mitigation of statin toxicity” value ([1]; NR 500 μM in cell media, lovastatin, 2, 4 and 7 days, listed as NR) read?
Answer: The value was “significantly reduces the toxicity of statin; also recorded: mitigates statin toxicity in a significant way”.

Question: And the “increase of IC50 of the statin in the presence of NR” value ([1]; NR 500 μM, after 4 and 7 days treatment)?
Answer: Its value is “two to three”.

Question: And the “cell viability in the NR treated group versus no NR” value ([1]; cell counting and MTT assay, at virtually every statin concentration)?
Answer: The value was “significantly higher”.

Question: And the “viable cells at the highest statin concentration” value ([1]; statin 10 μM, NR treated group, cell counting and MTT assay)?
Answer: The value was “significant percentages of viable cells remain”.

Question: What about the cell survival [2] of the same molecule?
Answer: The cell survival was “improvement of cell survival”.

Question: What about the “culture survival after passage” value [3] of the same molecule?
Answer: Its value is “highest culture numbers”.

Question: What about the “NAD+ level” value ([4]; NAR treated cells, control cells 1782.2) of the same molecule?
Answer: The value was 3886.6 pmoL/mg cell protein and nucleic acid content.

Question: What about the “NAD+ concentration compared to the controls” value ([4]; NAR treated embryonic stem cells vs controls) of the same molecule?
Answer: Its value is “higher concentration of NAD+; also recorded: increase of intracellular levels of nicotinamide adenine dinucleotide (NAD+)”.

Question: Which results are given for NC(=O)c1ccc[n+]([C@@H]2O[C@H](CO)[C@@H](O)[C@H]2O)c1 [NAR, β-nicotinamide riboside]?
Answer: water solubility [5]: extremely water-soluble; 16O-NAD+ (Hela cells; 669 uM): 2201.2 pmol; [NAD+]/10^6 cell (Hela cells; 669 uM): 1079 pmoL

Question: With CCOC(=O)c1ccc[n+]([C@@H]2O[C@H](CO)[C@@H](O)[C@H]2O)c1 [O-ethyl NR, O-ethyl β-nicotinic riboside] as the molecule, how does the “16O-NAD+” value (Hela cells; 500 uM) read?
Answer: Its value is 1084.1 pmol.

Question: What about the “[NAD+]/10^6 cell” value (Hela cells; 500 uM) of the same molecule?
Answer: Its value is 1004 pmoL.

Question: And the “16O-NAD+” value (Hela cells; 803 uM)?
Answer: The value was 2622.7 pmol.

Question: And the “[NAD+]/10^6 cell” value (Hela cells; 803 uM)?
Answer: Its value is 2242 pmoL.

Question: What about the “increase over the control NAD+ content” value (Hela cells; 500 micromolar) of the same molecule?
Answer: The value was 62%.

Question: What about the “NAD+ concentration in cells” value (Hela cells; 500 micromolar, untreated cells 618) of the same molecule?
Answer: The value was 1004 μmol per million cells.

Question: And the “increase in NAD+ concentration” value (Hela cells; 800 micromolar)?
Answer: The value was “approximately three”.

Question: Which results are given for CC[C@H](C)C(=O)O[C@H]1C[C@@H](C)C=C2C=C[C@H](C)[C@H](CC[C@@H]3C[C@@H](O)CC(=O)O3)[C@H]21 [statin, lovastatin, reference compound]?
Answer: IC50 ([1]; determined by MTT assay): 0.216 µM; IC50 ([1]; determined by cell counting): 0.248 µM; cell viability at the highest statin concentration ([1]; statin 10 μM, no NR group): almost completely non-viable

Question: For O=C(O)c1ccc[n+]([C@@H]2O[C@H](CO)C(O)C2O)c1 (stereo partly drawn) [nicotinic acid riboside, β-Nicotinic acid riboside], which “increase of NAD+ concentrations in cells” value (Hela cells; concentrations of Table 3) is on record?
Answer: The value was 60%.

Question: With CCOC(=O)c1ccc[n+]([C@@H]2O[C@H](COC(C)=O)C(OC(C)=O)[C@@H]2OC(C)=O)c1 (stereo partly shown) [TAENR, ethyl 1-[3,4-diacetyloxy-5-(acetyloxymethyl)oxolan-2-yl]-pyridine-3-carboxylate] as the molecule, how does the “16O-NAD+” value (Hela cells; 750 uM) read?
Answer: The value was 4432.2 pmol.

Question: And the “[NAD+]/10^6 cell” value (Hela cells; 750 uM)?
Answer: The value was 2052 pmoL.

Question: And the “increase of NAD+ concentrations in cells” value (Hela cells; concentration of Table 3 (750 uM))?
Answer: The value was “three”.
